Here are results for 14 compounds from ChEMBL document CHEMBL5634165, “Design, synthesis and activity evaluation of quinolinone derivatives as EZH2 inhibitors” (Bioorg Med Chem Lett, 2024).

Calls of active or inactive are those of the source. The rule behind the calls is not given here. Where only a bound is given, the exact number is not on record here.

Experiment [1] deals with T1, Histone-lysine N-methyltransferase EZH2 (Homo sapiens, UniProt Q15910). The experiment is described as follows: Inhibition of EZH2 (unknown origin).
Target sequence in this assay (Q15910 whole entry): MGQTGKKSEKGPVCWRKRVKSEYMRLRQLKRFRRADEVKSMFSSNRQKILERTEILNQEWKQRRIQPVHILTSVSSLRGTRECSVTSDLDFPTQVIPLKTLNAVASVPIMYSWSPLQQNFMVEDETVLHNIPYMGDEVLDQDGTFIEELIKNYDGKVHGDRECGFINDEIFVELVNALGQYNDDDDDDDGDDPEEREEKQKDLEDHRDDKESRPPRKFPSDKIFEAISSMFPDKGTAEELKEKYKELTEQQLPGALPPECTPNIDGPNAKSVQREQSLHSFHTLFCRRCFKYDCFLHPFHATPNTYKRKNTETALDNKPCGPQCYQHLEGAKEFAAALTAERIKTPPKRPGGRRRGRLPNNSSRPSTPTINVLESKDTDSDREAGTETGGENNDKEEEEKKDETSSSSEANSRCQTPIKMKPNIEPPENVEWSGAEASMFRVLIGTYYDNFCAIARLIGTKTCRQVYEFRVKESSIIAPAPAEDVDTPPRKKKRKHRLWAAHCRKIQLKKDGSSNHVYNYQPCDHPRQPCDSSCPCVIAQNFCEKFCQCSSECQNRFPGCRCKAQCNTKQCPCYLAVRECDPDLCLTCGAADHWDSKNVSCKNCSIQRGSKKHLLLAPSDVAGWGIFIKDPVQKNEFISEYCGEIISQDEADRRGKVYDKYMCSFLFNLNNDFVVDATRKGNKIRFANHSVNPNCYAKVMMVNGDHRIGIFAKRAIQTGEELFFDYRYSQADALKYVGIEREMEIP
In experiment [2] the test system is HeLa. Briefly: Antiproliferative activity against human HeLa cells by MTT assay. The experiment is classed as functional, cell-based. (Tetrazolium dyes change colour on reduction, which living cells bring about.)
Experiment [3] concerns A549. Briefly: cells. The note with it: Homo sapiens.
Description: Antiproliferative activity against human A549 cells by MTT assay
Experiment [4] has as its target Histone-lysine N-methyltransferase EZH2 (Homo sapiens, UniProt Q15910, Y641F). The experiment is described as follows: Inhibition of EZH2 Y641F mutant (unknown origin).
For experiment [5], the system named is A549. The experiment is described as follows: Induction of apoptosis in human A549 cells assessed as early apoptotic cells incubated for 24 hrs by Annexin V/PI staining based flow cytometry analysis (reference value: 1.17 %). The experiment is classed as functional. Background: In flow cytometry, cells or beads pass a laser one at a time.
Experiment [6] relates to HeLa. The experiment is described as follows: Induction of apoptosis in human HeLa cells assessed as early apoptotic cells by Annexin V/PI staining based flow cytometry analysis (reference value: 1.72 %). The experiment is classed as functional.
Experiment [7] has as its system A549. The experiment is described as follows: Inhibition of colony formation in human A549 cells assessed as clone formation rate relative to control. The experiment is classed as functional. More on the design: concentration or dose not given beside the values.
Experiment [8] concerns A549. The experiment is described as follows: Induction of apoptosis in human A549 cells assessed as late apoptotic cells incubated for 24 hrs by Annexin V/PI staining based flow cytometry analysis (reference value: 5.03 %). In kind it is functional.
Experiment [9] has as its system HeLa. Briefly: Inhibition of cell migration in human HeLa cells assessed as reduction of cell scratch width incubated for 24 hrs. The experiment is classed as functional, cell-based.
Experiment [10] deals with A549. Briefly: Induction of apoptosis in human A549 cells assessed as necrotic cells incubated for 24 hrs by Annexin V/PI staining based flow cytometry analysis (reference value: 1.35 %). The experiment is classed as functional.
Experiment [11] concerns A549. The experiment is described as follows: Induction of apoptosis in human A549 cells assessed as viable cells incubated for 24 hrs by Annexin V/PI staining based flow cytometry analysis (reference value: 91.6 %). In kind it is functional.
The target in experiment [12] is T1, Histone-lysine N-methyltransferase EZH2. The experiment is described as follows: Inhibition of EZH2 in human A549 cells assessed as reduction in H3K27me3 expression level incubated for 72 hrs by Western blotting analysis. The experiment is classed as cell-based. The note with it: dose 1-3 µM. Background: A western blot detects proteins with antibodies after separation by electrophoresis.
Target sequence in this assay (Q15910 whole entry, looked up): as the sequence (Q15910 whole entry) above

Experiment [13] deals with HeLa. The experiment is described as follows: Induction of apoptosis in human HeLa cells assessed as late apoptotic cells by Annexin V/PI staining based flow cytometry analysis (reference value: 6.46 %). The experiment is classed as functional.
The subject of experiment [14] is HeLa. The experiment is described as follows: Inhibition of colony formation in human HeLa cells assessed as clone formation rate relative to control. In kind it is functional. Also noted: scale not given: the % may be the effect or the level left.
For experiment [15], the system named is HeLa. Briefly: Induction of apoptosis in human HeLa cells assessed as viable cells by Annexin V/PI staining based flow cytometry analysis (reference value: 91.0 %). The experiment is classed as functional.
The test system of experiment [16] is HeLa. Briefly: Induction of apoptosis in human HeLa cells assessed as nectrotic cells by Annexin V/PI staining based flow cytometry analysis (reference value: 0.782 %). In kind it is functional.
Experiment [17] concerns the target T1, Histone-lysine N-methyltransferase EZH2. Briefly: Inhibition of EZH2 in human A549 cells assessed as reduction in H3K27me3 expression level at 3 uM incubated for 72 hrs by Western blotting analysis. The experiment is classed as cell-based.
Target sequence in this assay (Q15910 whole entry, looked up): as the sequence (Q15910 whole entry) above

Sequence of Histone-lysine N-methyltransferase EZH2 (Homo sapiens, UniProt Q15910, Y641F) (Q15910 whole entry Y641F): as the sequence (Q15910 whole entry) above, with Y641F counted along it

In the case of `COc1ccc2cc(-c3cc(C(=O)NCc4c(C)cc(C)[nH]c4=O)c4ccc(=O)[nH]c4c3)ccc2c1`, the IC50 in experiment [1] is 6.63 nM; in the experiment on HeLa [2], greater than 50 µM; in the experiment on A549 [3], 20.6 µM; in [4], 7.48 nM.

For the compound `Cc1cc(C)c(CNC(=O)c2cc(-c3ccc4ncccc4c3)cc3[nH]c(=O)ccc23)c(=O)[nH]1`, the IC50 in experiment [1] was 8.23 nM; in the experiment on HeLa [2] it was greater than 50 µM; with A549 [3] it was greater than 50 µM; in [4], 11.7 nM.

With `Cc1cc(C)c(CNC(=O)c2cc(-c3ccc(Br)cc3)cc3[nH]c(=O)ccc23)c(=O)[nH]1`, the Activity in the experiment on A549 [5] is listed as 12.4%; with HeLa [6], 4.72%; with A549 [7], 40%; with A549 [8], 51.8%; in the experiment on A549 [10] it was 1.07%; with A549 [11] it was 34.7%. Further, the Activity is 16.5% in the experiment with HeLa [13] and 45% with HeLa [14]. The inhibition result in the experiment with HeLa [9] is “Active”. In addition, the IC50 is 1.01 nM in experiment [1], 25.3 µM with HeLa [2], 11 µM in the experiment on A549 [3] and 5.68 nM in experiment [4]. The inhibition entry in experiment [12] was “Dose-Dependent Effect”.

In the case of `Cc1ccc(-c2cc(C(=O)NCc3c(C)cc(C)[nH]c3=O)c3ccc(=O)[nH]c3c2)cc1`, the IC50 was 2.74 nM in experiment [1], 33.8 µM with HeLa [2], 27.6 µM in the experiment on A549 [3] and 7.76 nM in experiment [4].

Take `Cc1cc(C)c(CNC(=O)c2cc(-c3ccc(C(=O)O)cc3)cc3[nH]c(=O)ccc23)c(=O)[nH]1`: the Activity was determined as 58% in the experiment with A549 [7] and 49% in the experiment on HeLa [14]. Further, the IC50 in experiment [1] was determined as 2.12 nM; in the experiment with HeLa [2], 20.4 µM; in the experiment on A549 [3], 12.8 µM; in [4], 6.45 nM.

For `COc1cccc(OC)c1-c1cc(C(=O)NCc2c(C)cc(C)[nH]c2=O)c2ccc(=O)[nH]c2c1`, the IC50 in experiment [1] is 5.84 nM; with HeLa [2], greater than 50 µM; in the experiment on A549 [3], 38.3 µM; in experiment [4] it was 8.87 nM.

Turning to `CCN(c1cc(-c2ccc(CN3CCOCC3)cc2)cc(C(=O)NCc2c(C)cc(C)[nH]c2=O)c1C)C1CCOCC1` [TAZEMETOSTAT], the Activity in the experiment with A549 [5] is 2.3%; in the experiment with HeLa [6] it was 5.21%; in the experiment on A549 [7] it was 45%; in the experiment with A549 [8] it was 52.6%; in the experiment with A549 [10], 10.8%; with HeLa [15], 74%. Besides, the Activity in the experiment on A549 [11] was found to be 34.3%; in the experiment on HeLa [13] it was 19.6%; in the experiment with HeLa [14], 47%; with HeLa [16], 1.2%. In addition, the IC50 in the experiment on HeLa [2] worked out at 27.7 µM; in the experiment with A549 [3], 15.8 µM.

`Cc1cc(C)c(CNC(=O)c2cc(-c3ccccc3)cc3[nH]c(=O)ccc23)c(=O)[nH]1`: the IC50 in experiment [1] stood at 6.27 nM; in the experiment on HeLa [2], 43.2 µM; with A549 [3], 19.6 µM; in [4], 10.3 nM.

With `Cc1cc(C)c(CNC(=O)c2cc(-c3cccc4ccccc34)cc3[nH]c(=O)ccc23)c(=O)[nH]1`, the IC50 in experiment [1] is 7.42 nM; in the experiment on HeLa [2], greater than 50 µM; in the experiment with A549 [3], 30.3 µM; in experiment [4], 12.2 nM.

`Cc1cc(C)c(CNC(=O)c2cc(-c3cccnc3)cc3[nH]c(=O)ccc23)c(=O)[nH]1`: the IC50 in experiment [1] is 3.78 nM; in the experiment with HeLa [2] it was 47.4 µM; in the experiment on A549 [3], 24.3 µM; in experiment [4], 8.54 nM.

Turning to `COc1c(C)cccc1-c1cc(C(=O)NCc2c(C)cc(C)[nH]c2=O)c2ccc(=O)[nH]c2c1`, the IC50 in experiment [1] is 4.21 nM; in the experiment on HeLa [2], greater than 50 µM; in the experiment on A549 [3] it was 35.7 µM; in [4], 10.4 nM.

Turning to `Cc1cc(C)c(CNC(=O)c2cc(-c3ccc(Oc4ccccc4)cc3)cc3[nH]c(=O)ccc23)c(=O)[nH]1`, the half-inhibitory concentration (IC50) in experiment [1] is 8.21 nM; in the experiment with HeLa [2], 46.3 µM; in the experiment on A549 [3], greater than 50 µM; in experiment [4], 9.41 nM.

For `Cc1cc(C)c(CNC(=O)c2cc(-c3ccc(-c4ccccc4)cc3)cc3[nH]c(=O)ccc23)c(=O)[nH]1`, the Activity in the experiment with A549 [5] came out at 10.1%; in the experiment on A549 [7], 42%; with A549 [8] it was 47.3%; in the experiment with A549 [10], 3.6%; with A549 [11] it was 38.4%. Also, the IC50 in experiment [1] was found to be 1.67 nM; in the experiment on HeLa [2], 29.4 µM; in the experiment with A549 [3] it was 13.4 µM; in [4], 7.4 nM.

Take `COc1cc(-c2cc(C(=O)NCc3c(C)cc(C)[nH]c3=O)c3ccc(=O)[nH]c3c2)ccc1F`: the Activity came to 3.63% in the experiment with A549 [5]; 5.85% in the experiment with HeLa [6]; 46% in the experiment with A549 [7]; 17.3% in the experiment on A549 [8]; 0.8% with A549 [10]; 58.5% in the experiment with HeLa [15]. For the same compound, the Activity with A549 [11] worked out at 78.2%; in the experiment with HeLa [13] it was 33.3%; in the experiment with HeLa [14] it was 39%; in the experiment on HeLa [16] it was 4.32%. Moreover, the inhibition entry (in the experiment on HeLa [9]; in experiment [17]) was “Active” throughout. The IC50 was 0.94 nM in experiment [1], 18.4 µM with HeLa [2], 12.3 µM with A549 [3] and 5.43 nM in [4].

By IC50 is commonly meant the concentration needed to halve the response being measured.
